Columns and labels:
KMS-Cell = test: KMS cell IC50 (Table 4); type: cell-based; conditions: KMS cells
[1] = molecular target: T1, Pim-2 stably transfected into the U2OS human osteogenic sarcoma line (Homo sapiens, UniProt Q9P1W9); test: Pim cell assay, phospho-BAD normalized against total BAD, U2OS stably transfected with Pim-2; type: cell-based; conditions: U2OS stably transfected with Pim-2; phospho-BAD normalized against total BAD; 29 min incubation; read-out: Pim2_Cell_IC50_
T1 construct: expressed in transfected cells; host or cells: U2OS human osteogenic sarcoma line
T1 sequence (Q9P1W9 whole entry): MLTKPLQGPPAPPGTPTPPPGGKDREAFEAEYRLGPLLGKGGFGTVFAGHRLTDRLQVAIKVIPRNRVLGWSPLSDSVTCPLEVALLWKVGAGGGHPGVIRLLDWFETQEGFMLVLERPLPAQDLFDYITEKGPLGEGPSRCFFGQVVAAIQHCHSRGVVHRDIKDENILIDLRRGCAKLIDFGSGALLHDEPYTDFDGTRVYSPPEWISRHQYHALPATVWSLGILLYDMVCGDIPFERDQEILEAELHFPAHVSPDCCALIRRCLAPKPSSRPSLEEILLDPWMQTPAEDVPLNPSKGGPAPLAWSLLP
Procedure, shortened: (§1)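 Read-out is phospho-BAD relative to total BAD, by MSD electrochemiluminescence on lysates, expressed as % phosphoprotein = (2×phospho)/(phospho+total)×100. Engineered U2OS lines carrying stably transfected Pim-1 or Pim-2 received 10-point compound dilutions at 0.3% final DMSO after overnight culture at 37 °C; DMSO-only wells served as high control.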

[2] = molecular target: T2, Pim-1 stably transfected into the U2OS human osteogenic sarcoma line (Homo sapiens, UniProt P11309); test: Pim cell assay, phospho-BAD normalized against total BAD, U2OS stably transfected with Pim-1; type: cell-based; conditions: U2OS stably transfected with Pim-1; phospho-BAD normalized against total BAD; 29 min incubation; read-out: Pim1_Cell_IC50_
T2 construct: expressed in transfected cells; host or cells: U2OS human osteogenic sarcoma line
T2 sequence (P11309 whole entry): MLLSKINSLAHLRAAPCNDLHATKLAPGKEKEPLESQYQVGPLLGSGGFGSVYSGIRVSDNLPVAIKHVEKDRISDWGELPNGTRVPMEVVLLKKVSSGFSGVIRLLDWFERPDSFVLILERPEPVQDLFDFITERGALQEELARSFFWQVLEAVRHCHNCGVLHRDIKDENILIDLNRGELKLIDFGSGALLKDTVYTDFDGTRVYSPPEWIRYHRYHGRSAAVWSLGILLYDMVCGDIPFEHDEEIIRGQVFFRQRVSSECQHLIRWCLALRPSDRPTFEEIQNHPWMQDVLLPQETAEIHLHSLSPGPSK
Procedure, shortened: as §1

[3] = molecular target: T3, full length recombinant Pim-1 protein (Homo sapiens, UniProt P11309); test: Pim-1 enzyme assay (HTRF, phosphorylation of biotinylated-BAD (S112) peptide); type: biochemical; conditions: read-out: Pim_1_IC50
T3 construct: by full length recombinant Pim-1, Pim-2, or Pim-3 protein; hexahistidine tag followed by a thrombin cleavage site (N); made in house; host or cells: Sf9 (baculovirus) or E. coli (pET28)
T3 sequence (P11309 whole entry): as above
Procedure, shortened: (§2)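 Each full-length human Pim enzyme phosphorylates a biotinylated BAD (S112) peptide, and the product is sensed by Eu anti-phospho-BAD antibody with streptavidin-APC after quenching with 3 mM EDTA. Conditions: 60 mM Hepes pH 7.0, 0.05% BSA, 2 mM DTT.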

[4] = molecular target: T4, full length recombinant Pim-2 protein (Homo sapiens, UniProt Q9P1W9); test: Pim-2 enzyme assay (HTRF, phosphorylation of biotinylated-BAD (S112) peptide); type: biochemical; conditions: read-out: Pim2_IC50
T4 construct: by full length recombinant Pim-1, Pim-2, or Pim-3 protein; hexahistidine tag followed by a thrombin cleavage site (N); made in house; host or cells: Sf9 (baculovirus) or E. coli (pET28)
T4 sequence (Q9P1W9 whole entry): as the sequence (Q9P1W9 whole entry) above
Procedure, shortened: as §2

| IC50 (KMS-Cell) | IC50 [1] | IC50 [2] | IC50 [3] | IC50 [4] | SMILES |
| --- | --- | --- | --- | --- | --- |
| 6280 nM | 2470 nM | 433 nM | 1 nM | 4 nM | CC1CCNCC1Oc1cncc(-c2n[nH]c3ccc(-c4c(F)cccc4F)cc23)n1 (single isomer, unassigned) [Example 424] |
| 7380 nM | – | – | 20 nM | 99 nM | N#CCc1ccc2[nH]nc(-c3cncc(O[C@H]4CNCCC45CC5)n3)c2c1 [Example 269, (3-(6-((4R)-6-azaspiro[25]oct-4-yloxy)-2-pyrazinyl)-1H-indazol-5-yl)acetonitrile 2,2,2-trifluoroacetate] |
| 2650 nM | > 10000 nM | 1170 nM | – | – | O=c1cc(-c2n[nH]c3ccc(-c4c(F)cccc4F)cc23)nc(N[C@@H]2CCCNC2)[nH]1 [Example 282, (R)-6-(5-(2,6-difluorophenyl)-1H-indazol-3-yl)-2-(piperidin-3-ylamino)pyrimidin-4(3H)-one] |
| > 31600 nM | – | – | 20 nM | 178 nM | c1cc(-c2ccc3[nH]cc(-c4cncc(O[C@@H]5CCCNC5)n4)c3c2)cc(-c2cc[nH]n2)c1 [Example 351] |
| > 31600 nM | – | – | 20 nM | 104 nM | c1cc(-c2ccc3[nH]cc(-c4cncc(O[C@@H]5CCCNC5)n4)c3c2)cc(-c2nnn[nH]2)c1 [Example 355] |
| 12600 nM | – | – | 6 nM | 41 nM | c1cc(-c2ccc3[nH]cc(-c4cncc(O[C@@H]5CCCNC5)n4)c3c2)cc(-c2ccno2)c1 [Example 356] |
| > 31600 nM | – | – | 13 nM | 179 nM | Cc1nc(-c2cccc(-c3ccc4[nH]cc(-c5cncc(O[C@@H]6CCCNC6)n5)c4c3)c2)cs1 [Example 357] |
| 8520 nM | – | – | 4 nM | 20 nM | c1ccc(-c2ccc3[nH]cc(-c4cncc(O[C@@H]5CCCNC5)n4)c3c2)cc1 [Example 358] |
| 5850 nM | 3460 nM | 22 nM | – | 5 nM | c1cc2[nH]nc(-c3cncc(OC4CCNCC4)n3)c2cc1-c1cncc(C2CC2)n1 [Example 364, 5-(6-cyclopropyl-2-pyrazinyl)-3-(6-(4-piperidinyloxy)-2-pyrazinyl)-1H-indazole] |
| 14300 nM | – | – | 20 nM | 144 nM | CC[C@@H]1CCNC[C@H]1Oc1cncc(-c2n[nH]c3ccc(-c4c(F)cccc4F)cc23)n1 [Example 397] |
| 10700 nM | – | – | 9 nM | 12 nM | CC[C@H]1CCNC[C@@H]1Oc1cncc(-c2n[nH]c3ccc(-c4c(F)cccc4F)cc23)n1 [Example 398, 5-(2,6-difluorophenyl)-3-(6-(((3R,4S)-4-ethyl-3-piperidinyl)oxy)-2-pyrazinyl)-1H-indazole] |
| 2360 nM | 5310 nM | 460 nM | 2 nM | 1 nM | Clc1ccccc1-c1ccc2[nH]nc(-c3cncc(O[C@H]4CNCCC45CC5)n3)c2c1 [Example 406] |
| 1300 nM | – | – | 1 nM | 1 nM | N#Cc1ccccc1-c1ccc2[nH]nc(-c3cncc(O[C@H]4CNCCC45CC5)n3)c2c1 [Example 408] |
| 2680 nM | – | – | 1 nM | 1 nM | N#Cc1cccc(F)c1-c1ccc2[nH]nc(-c3cncc(O[C@H]4CNCCC45CC5)n3)c2c1 [Example 409] |
| 1750 nM | – | – | 9 nM | 7 nM | N#Cc1ncccc1-c1ccc2[nH]nc(-c3cncc(O[C@H]4CNCCC45CC5)n3)c2c1 [Example 410] |
| 1220 nM | – | – | 4 nM | 12 nM | N#Cc1ccncc1-c1ccc2[nH]nc(-c3cncc(O[C@H]4CNCCC45CC5)n3)c2c1 [Example 411] |
| 6430 nM | – | – | 2 nM | 4 nM | Fc1ccc(F)c(-c2ccc3[nH]nc(-c4cncc(O[C@H]5CNCCC56CC6)n4)c3c2)c1 [Example 442] |
| 4640 nM | – | – | 1 nM | 5 nM | Fc1ccc(Cl)cc1-c1ccc2[nH]nc(-c3cncc(O[C@H]4CNCCC45CC5)n3)c2c1 [Example 443] |

| IC50 (KMS-Cell) | IC50 [1] | IC50 [2] | IC50 [3] | IC50 [4] | SMILES |
| --- | --- | --- | --- | --- | --- |
| 5050 nM | – | – | 4 nM | 28 nM | Fc1cccc(F)c1-c1ccc2[nH]nc(-c3cncc(OC4CNCC5CC54)n3)c2c1 (stereo not drawn) [Example 444] |
| 1730 nM | – | – | 3 nM | 5 nM | c1cc2[nH]nc(-c3cncc(O[C@H]4CNCCC45CC5)n3)c2cc1C1CC1 [Example 446] |
| 3160 nM | – | – | 4 nM | 4 nM | c1cc2[nH]nc(-c3cncc(O[C@H]4CNCCC45CC5)n3)c2cc1C1CCCC1 [Example 447] |
| 1470 nM | – | – | 3 nM | 9 nM | Fc1ccnc(F)c1-c1ccc2[nH]nc(-c3cncc(O[C@H]4CNCCC45CC5)n3)c2c1 [Example 451] |
| 9410 nM | – | – | 20 nM | 97 nM | Fc1cccc(F)c1-c1ccc2[nH]nc(-c3cncc(OC4CNCC5CC54)n3)c2c1 (stereo not drawn) [Example 452] |
| 4190 nM | – | – | 4 nM | 7 nM | c1cc2[nH]nc(-c3cncc(O[C@H]4CNCCC45CC5)n3)c2cc1C1CCC1 [Example 453] |
| 5490 nM | – | – | 4 nM | 3 nM | N#Cc1ccc(-c2ccc3[nH]nc(-c4cncc(O[C@H]5CNCCC56CC6)n4)c3c2)c(F)c1 [Example 456] |
| 1610 nM | – | – | 2 nM | 1 nM | NS(=O)(=O)c1ccc(-c2ccc3[nH]nc(-c4cncc(O[C@H]5CNCCC56CC6)n4)c3c2)c(F)c1 [Example 463] |
| 546 nM | – | – | 3 nM | 3 nM | CS(=O)(=O)c1cc(F)c(-c2ccc3[nH]nc(-c4cncc(O[C@H]5CNCCC56CC6)n4)c3c2)c(F)c1 [Example 467] |
| 1690 nM | 4480 nM | 202 nM | 2 nM | 3 nM | COC(=O)c1ccc2[nH]nc(-c3ccnc(NC4CCNCC4)n3)c2c1 [Example 489] |
| 1450 nM | – | – | 4 nM | 8 nM | COC(=O)c1ccc2[nH]nc(-c3ccnc(N4CCC(N)CC4)n3)c2c1 [Example 491] |
| > 15800 nM | – | – | 70 nM | 159 nM | O=C(O)c1ccc2[nH]nc(-c3cncc(N[C@@H]4CCCNC4)n3)c2c1 [Example 495] |
| > 15800 nM | > 31600 nM | 354 nM | 13 nM | 79 nM | CN(C)c1nc(-c2c[nH]c3ccc(-c4cncc(C5CC5)n4)cc23)cc(=O)[nH]1 [Example 527] |
| 2620 nM | – | – | 2 nM | 2 nM | O=c1cc(-c2n[nH]c3ccc(-c4c(F)cccc4F)cc23)nc(O[C@@H]2CCCNC2)[nH]1 [Example 529] |
| 6040 nM | – | – | 2 nM | 24 nM | c1coc(-c2ccc3[nH]nc(-c4cncc(N[C@@H]5CCCNC5)n4)c3c2)n1 [Example 541] |
| 15900 nM | – | – | 2 nM | 24 nM | c1coc(-c2ccc3[nH]cc(-c4cncc(N[C@@H]5CCCNC5)n4)c3c2)n1 [Example 542] |
| 6260 nM | – | – | 7 nM | 10 nM | O=c1cc(-c2n[nH]c3ccc(-c4c(F)cccc4F)cc23)nc(OC2CNCCC2F)[nH]1 (stereo not drawn) [Example 554] |

From patent US9090593B2, “Bicyclic compounds as Pim inhibitors” (AMGEN INC., priority 2010, dated 2015)
